Reference: patent US9522192B2 (EPITECH GROUP S.r.l., priority 2012, dated 2016)
Where two headings read alike, the source gives them in different places. Each block holds one compound with its values, some of them ahead of it.

What was measured:
[1] = Skin accumulation and PEA release after topical application on the paw (lipid extraction, HPLC)
Experimental: (§2) Frozen tissues samples were weighed and homogenized in a solution of methanol and a serine protease inhibitor, phenylmethylsulphonyl fluoride (PMSF, 1 mM). Then, homogenate tissues were subjected to methanol-chloroform-water (1:2:1, v/v/v) extraction. After centrifugation, the organic layer was carefully removed, transferred to another vial and purified by silica gel (60-Å, 230-400 mesh) micro-columns.
(§3) Molecules of interest were isolated by small-scale chromatography. Glass microcolumns (5 cm, ø 50 mm) were used. 1 ml of a mixture (1/1 v/v) of chloroform and silica gel (0.04-0.063 mm, 230-400 mesh, Macherey-Nagel) was used to load the columns. Samples were dissolved in 1 ml of chloroform and then loaded. Columns were washed with 1 ml of chloroform and 2 ml of chloroform/methanol (9/1 v/v), thus obtaining the fractions of interest that were collected and evaporated in vacuum. The extraction method was validated in blank experiments by treating skin with a known amount of each analyzed compound. Recovery percentages were calculated as well and they resulted higher than 85% for all the tested products.
(§4) HPLC analysis was performed on a Jasco apparatus (Jasco inc., Easton, Md., USA) composed by a quaternary gradient pump (PU 2089 Plus), a 25 μl Rheodyne injection valve and a multi-wave length UV detector (MD 2010 Plus). […] The specificity (absence of interfering peak from skin samples) was assessed as well.

[2] = tested on: carrageenan-induced paw oedema; experiment: Carrageenan-induced paw oedema, topical application; format: in vivo, mice; details: for anti-inflammatory effect at earlier times: 2 and 4 h after application; for anti-inflammatory activity (paw volume / paw oedema): topical on paw, dose equimolar to 1 mg PEA/paw, evaluated 2-96 h after carrageenan
Experimental: (§1) Male Swiss mice weighing 25 to 30 g were purchased from Harlan (Udine, Italy). They were housed in stainless steel cages in a room kept at 22±1° C. on a 12/12-h light/dark cycle. […] Each group of mice (n=6) was applied with 0.05 ml of ethanol solutions on dorsal surface of the left paw. After 5 minutes the animal received 50 μl of 1% λ-carrageenan in sterile saline injected into the treated paw. Absolute ethanol was used as vehicle in control animals. […] Paw oedema development was measured by a plethysmometer (Ugo Basile, Milan, Italy). The increase in paw volume was evaluated as the difference between the paw volume measured at each time point and the basal paw volume measured at time 0 (before drug application and carrageenan injection). Results are expressed as mean±S.E.M. of n experiments. All analyses were conducted using Graph-Pad Prism (GraphPad Software Inc., San Diego, Calif.). The significance of differences between groups was determined by Student t-test (for ex vivo experiments) and two-way analysis of variance (ANOVA) followed by Bonferroni post hoc tests for multiple comparisons (for in vivo experiments). Difference with P<0.05 (*) was considered statistically significant.

[3] = tested on: carrageenan-induced hyperalgesia; experiment: Mechanical hyperalgesia after λ-carrageenan injection into the paw, topical application; format: in vivo, mice; details: for anti-hyperalgesic effect at earlier times: 2 and 4 h after application; for anti-hyperalgesic activity (paw withdrawal latency): topical on paw, dose equimolar to 1 mg PEA/paw, evaluated 2-96 h after carrageenan
Experimental: as §1, with “Mechanical hyperalgesia” for “Paw oedema development”, “assessed” for “measured”, “measuring of latency (s) to withdraw” for “a plethysmometer (Ugo Basile, Milan, Italy). The increase in paw volume was evaluated as the difference between”, “from a constant mechanical pressure exerted onto its dorsal surface. A 15-g calibrated glass cylindrical rod (diameter=10 mm) […] to a conical point (diameter=3 mm) was used to exert the mechanical force. The weight was suspended vertically between two rings attached to a stand and was free to move vertically. A cut off” for “volume measured at each”, “of 90 sec. was used.” for “point and the basal paw volume measured at time 0 (before drug application and carrageenan injection).”

[4] = mouse, in vivo
Experimental: as §2, §3, §4

Water solubility = format: physicochemical
[5] = 6-96 h after topical application
[6] = after local application, 1.6 mg/paw
[7] = after local application, 1.72 mg/paw

PEA levels in the skin ([1]; after 24 h): return to baseline
Compound: CCCCCCCCCCCCCCCC(=O)NCCO [PEA, Palmitoylethanolamide, reference compound]
anti-inflammatory effect at earlier times [2]: significant
anti-inflammatory effect at later times [2, 5]: no effect
anti-inflammatory activity (paw volume / paw oedema) [2]: markedly reduced
anti-hyperalgesic effect at earlier times [3]: significant
anti-hyperalgesic effect at later times [3, 5]: no effect
anti-hyperalgesic activity (paw withdrawal latency) [3]: markedly reduced

Compound: CCCCCCCCCCCCCCCC(=O)NCCOC(=O)CCC(=O)OCCOCCO [derivative 8a, N-Palmitoylethanolamine-O-(succinyl(diethylene glycol))]
PEA release sustained / maintained up to ([1]; after topical application): up to 72 hours
accumulation in the skin ([1]; after topical application): accumulate in the skin and release PEA
kinetic release of PEA in the skin ([1]; after topical application): faster release
start of PEA release (relevant amount of PEA detectable) ([1]; after topical application): 2 h
total amount accumulated in the skin (PEA+derivative) relative to PEA alone ([1]; whole period of analysis): ~10 times
anti-inflammatory effect at earlier times [2]: No effect
anti-inflammatory activity lasting up to [2, 6]: up to 72 h
anti-inflammatory activity (paw volume / paw oedema) [2]: significant
anti-hyperalgesic effect at earlier times [3]: No effect
anti-hyperalgesic activity lasting up to [3, 6]: up to 72 h
anti-hyperalgesic activity (paw withdrawal latency) [3]: significant

accumulation in the skin [4]: accumulate in the skin and release PEA
Compound: CCCCCCCCCCCCCCCC(=O)NCCOC(=O)CCC(=O)OCCOCCOCCO [derivative 8b, N-Palmitoylethanolamine-O-(succinyl(triethylene glycol))]
time from which anti-inflammatory activity is significant [2, 7]: ≥ 2 days
anti-inflammatory activity (paw volume / paw oedema) [2]: significant
time from which anti-hyperalgesic activity is significant [3, 7]: ≥ 2 days
anti-hyperalgesic activity (paw withdrawal latency) [3]: significant

Compound: N-[2-methoxypolyethylene glycol(5000)-O-carbonyl-oxy-ethyl]-palmitamide [Example 7]
Water solubility (Water solubility): > 10000 µg/mL
